The values below come from patent US4532327A, “Sesbanimide and the use thereof in treating leukemic tumors” (priority 1983, dated 1985).

One test concerns KB Cell Culture. Type of test: cell-based. Conditions: Example 1 fractions, active if ED50 ≤30 μg./ml. The protocol:
Chemotherapeutic Activity. The chemotherapeutic activities of the fractions obtained in the isolation procedure of Example 1 were determined in part by a KB Cell Culture Screen in accordance with the National Cancer Institute Protocol 1.600 [Geran et al., Cancer Chemother, Rep., Part 3, 3(2): 17 (1972)]. […] Such a dose is referred to as ED50 and activity is indicated for ED50 levels of ≤30 μg./ml.

The subject of test [1] is lymphocytic leukemia cells of the strain P388 (PS tumors). The experiment in a line: lymphocytic leukemia P388 (PS tumors) implanted in mice (NCI Protocol 1.200). The class given is in vivo, mice (CDF1). The settings on record: active if ≥125%. On the procedure:
As previously mentioned, the fractionation of Example 1 was also guided by assaying the effectiveness of the various fractions against lymphocytic leukemia cells of the strain P388 (PS tumors) implanted in mice. These assays were made according to the National Cancer Institute Protocol 1.200 described in Geran et al., supra, page 9. Starting 24 hr. after the tumor implantation, previously determined dosages of each fraction were injected intraperitoneally once a day for 9 days. Survival time of treated leukemic mice is compared to that of untreated leukemic mice (T/C×100). A T/C value of 100% indicated no activity. A T/C value greater than 100% means that the treated mice are surviving longer than the control mice. A fraction giving a T/C value greater than 125% is indicative of activity as defined by the NCI Protocols, above. Activities of the fractions comprising the pure or substantially pure sesbanimide isolates as reported in Table II establish the utility of the compounds as antileukemic agents.
(§1) ^1 All hosts were type CDF1 mice. Six replicate mice were tested
(§2) ^2 The doses are reported as micrograms per kilogram of host body
(§3) weight per injection. The injection vehicle in all cases was water.
(§4) ^3 T/C = mean survival time of test animals/mean survival time of
(§5) control animals; 125% or above considered active.

Another test relates to lymphoid leukemia L1210. Kind of test: lymphoid leukemia L1210 in mice (NCI Protocol 1.100). Type of test: in vivo. Conditions: female CDF1 mice, active if ≥125%. The protocol: This assay was conducted in accordance with the NCI Protocol 1.100 described in Geran et al., supra, page 7. Starting 24 hr. after the tumor implantation, predetermined doses of the compound were injected intraperitoneally once a day for 9 days.
as §1, §2, §3, §4, §5

The next test deals with KB cell. Conditions: attributed in U.S. Pat. No. 4,200,639 (disclaimed); cited from earlier work.
For test [2], the system named is lymphocytic leukemia P388 (PS). The settings on record: attributed in U.S. Pat. No. 4,200,639 (disclaimed); cited from earlier work.

Like-named read-outs stand apart in the source and are kept apart here.

For the compound `C=C1COC(O)(C2OCOC(C3CC(=O)NC(=O)C3)C2O)C1C` (stereo not drawn) [Sesbanimide A], the “ED50 (dose that inhibits growth to 50% of control growth by 3 days after drug addition)” value in the test with KB Cell Culture (listed as K443, 4320 min) is 0.0077 µg/mL. In addition, the T/C (usually the ratio of treated to control) in test [1] (female CDF1 mice, 2.00 μg./kg./inj. i.p. once a day for 9 days) is listed as 119%; in test [1] (female CDF1 mice, 4.00 μg./kg./inj. i.p. once a day for 9 days) it was 119%; in test [1] (female CDF1 mice, 8.00 μg./kg./inj. i.p. once a day for 9 days), 140%; in test [1] (female CDF1 mice, 16.00 μg./kg./inj. i.p. once a day for 9 days), 149%; in test [1] (female CDF1 mice, 32.00 μg./kg./inj. i.p. once a day for 9 days) it was 181%; in the test with lymphoid leukemia L1210 (16.00 μg./kg./inj. i.p. once a day for 9 days) it was 116%. The figures for the T/C with lymphoid leukemia L1210 (32.00 μg./kg./inj. i.p. once a day for 9 days) and in the test with lymphoid leukemia L1210 (64.00 μg./kg./inj. i.p. once a day for 9 days) were 135% and “toxic”, respectively.

Take `C=C1COC(O)(C2OCOC(C3CC(=O)NC(=O)C3)C2O)C1C` (stereo not drawn) [Sesbanimide B]: the “ED50 (dose that inhibits growth to 50% of control growth by 3 days after drug addition)” value in the test with KB Cell Culture (listed as K442, 4320 min) turned out to be 0.068 µg/mL. The T/C is on record as 157% in test [1] (male CDF1 mice, 1.87 μg./kg./inj. i.p. once a day for 9 days); 161% in test [1] (male CDF1 mice, 3.75 μg./kg./inj. i.p. once a day for 9 days); “toxic” in test [1] (male CDF1 mice, 7.50 μg./kg./inj. i.p. once a day for 9 days).

For `O=C1NC(=O)[C@@]2(CC[C@@H](O)C2)c2ccncc21` [sesbanine], the “apparent activity in the KB cell screen” value in the test on KB cell is given as “result of a heretofore unidentified impurity”. The “apparent activity in the PS tumor system” value in test [2] is “result of a heretofore unidentified impurity”.
